The experiment has as its target Glutamate NMDA receptor. Briefly: The compound was tested for NMDA antagonist activity against [3H]-CGS- 19755 binding in rat cortex preparation.
Molecule `O=C(CP(=O)(O)O)[C@H]1CCCN[C@H]1C(=O)O` (stereo in doubt; 14) gave a Ki of 64 nM.
For `O=C(O)[C@@H]1NCCC[C@@H]1C(O)CP(=O)(O)O` (stereo not given in full) the value was 106 nM; for `O=C(CP(=O)(O)O)[C@H]1CCCN[C@H]1C(=O)O` (stereo in doubt; 1), 69 nM; for `O=C(O)[C@@H]1C[C@H](CP(=O)(O)O)CCN1` (single isomer, unassigned) [SELFOTEL], 40 nM.
For `O=C(CP(=O)(O)O)[C@H]1CCCN[C@H]1C(=O)O` (stereo in doubt; 15) the value was over 1000 nM.

A word on the Ki: it is the equilibrium dissociation constant of an inhibitor or competing ligand from its target. The low end stands for higher affinity, the high end for lower affinity.
